In patent US20200131669A1, “CYCLIC PEPTIDE COMPOUND HAVING HIGH MEMBRANE PERMEABILITY, AND LIBRARY CONTAINING SAME” (Chugai Seiyaku Kabushiki Kaisha, priority 2017, published 2020):
Starred links: 1 amine or outer side, 2 acyl side, 3 side chain; linkers in the order of their positions; H or OH if unused. Positions of bridges follow the written chain, without caps; N, C: chain ends. Non-standard residues stand in square brackets, D forms with d. Residues, ends and D or L forms follow the SMILES beside them. *: point of attachment. X4 = O=C([C@@H]1C[C@@H](N2CCC(F)(F)CC2)CN1[*:1])[*:2]; Glu(NHSO2Me) = CS(=O)(=O)NC(=O)CC[C@H](N)C(=O)O; Phe(4-CF3) = N[C@@H](Cc1ccc(C(F)(F)F)cc1)C(=O)O; 3Pal(6-NMe2) = CN(C)c1ccc(C[C@H](N)C(=O)O)cn1; NMePhe(3-Cl) = CN[C@@H](Cc1cccc(Cl)c1)C(=O)O; hPhe(4-Cl) = N[C@@H](CCc1ccc(Cl)cc1)C(=O)O; N(isopentyl)Gly = CC(C)CCNCC(=O)O; NMeF = CN[C@@H](Cc1ccccc1)C(=O)O; NMeI = CC[C@H](C)[C@H](NC)C(=O)O; dNMeF = CN[C@H](Cc1ccccc1)C(=O)O; NMeD = CN[C@@H](CC(=O)O)C(=O)O; NMeL = CN[C@@H](CC(C)C)C(=O)O; NMeV = CN[C@H](C(=O)O)C(C)C; NMeS = CN[C@@H](CO)C(=O)O; NMeA = CN[C@@H](C)C(=O)O; Piperidide = C1CCN(*)CC1; dAbu = CC[C@@H](N)C(=O)O; CH2CMe2OH = CC(C)(O)C*; NBuGly = CCCCNCC(=O)O; Isopentyl = CC(C)CC*; NPrGly = CCCNCC(=O)O; Sar = CNCC(=O)O; tBu = CC(C)(C)*; Propyl = CCC*

Assay: Caco-2 membrane permeability, improved method as used in the following Examples (96-well, 20 to 24 h preincubation)
Assay type: in vitro ADME
Details: Caco-2, Caco-2
Summary of the method: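 Caco-2 monolayers were grown three weeks and preincubated 20–24 h at 37 °C with compound in DMEM+FaSSIF (1% DMSO) apically. The assay then used compound in FaSSIF/HBSS (1% DMSO, pH 6.0) apically and HBSS with 4% BSA (pH 7.4) basally. Basal samples were taken at 180 min for LC/MS, and Papp (cm/sec) was calculated.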

Work on `CC[C@H](C)[C@@H]1NC(=O)[C@H](Cc2ccccc2)N(C)C(=O)CN(C)C(=O)C[C@@H](C(=O)N2CCCCC2)NC(=O)[C@H](C(C)C)N(C)C(=O)[C@H](CCc2ccc(Cl)cc2)NC(=O)[C@H](CC(C)C)N(C)C(=O)[C@H](CC(C)C)N(C)C(=O)CN(C)C(=O)[C@H]([C@@H](C)O)NC(=O)[C@H](CC(C)C)N(C)C1=O` [pd362] ([Sar][NMeF]I[NMeL]T[Sar][NMeL][NMeL][hPhe(4-Cl)][NMeV]D-Piperidide; lactam N-11) yielded a Papp A→B of 1 ×10⁻⁶ cm/s.

Same assay, conditions: human, Caco-2, Caco-2

Point of comparison: `CCCOC[C@@H]1NC(=O)[C@H](Cc2ccccc2)N(C)C(=O)[C@@H](C(C)C)NC(=O)C[C@@H](C(=O)N2CCCCC2)NC(=O)[C@H](CC(C)C)N(C)C(=O)[C@H](Cc2ccccc2)N(C)C(=O)[C@H](COC(C)(C)C)NC(=O)[C@H](CC(C)C)N(C)C(=O)CN(C)C(=O)[C@H]([C@@H](C)O)NC(=O)[C@H](CC(C)C)N(C)C1=O` [pd327] ([dV][NMeF]S(Propyl)[NMeL]T[Sar][NMeL]S(tBu)[NMeF][NMeL]D-Piperidide; lactam N-11), Papp A→B at 180 min 3.1 ×10⁻⁶ cm/s. Against it:
- CC(C)CCOC[C@@H]1NC(=O)[C@H](CC(C)C)N(C)C(=O)CN(C)C(=O)[C@H]([C@@H](C)O)NC(=O)[C@H](CC(C)C)N(C)C(=O)[C@H](CC(C)C)NC(=O)[C@H](Cc2ccccc2)N(C)C(=O)[C@@H](C)NC(=O)C[C@@H](C(=O)N2CCCCC2)NC(=O)[C@H](CC(C)C)N(C)C(=O)[C@@H](Cc2ccccc2)N(C)C1=O [pd300] ([dA][NMeF]L[NMeL]T[Sar][NMeL]S(Isopentyl)[dNMeF][NMeL]D-Piperidide; lactam N-11) — 1.6-fold lower, 1.9 ×10⁻⁶ cm/s
- CCCOC[C@H]1C(=O)N[C@@H](Cc2ccc(N(C)C)nc2)C(=O)N(C)[C@@H](Cc2cccc(Cl)c2)C(=O)N(C)[C@@H](C)C(=O)N[C@@H]([C@@H](C)O)C(=O)N(CCC(C)C)CC(=O)N(C)[C@@H](C(C)C)C(=O)N[C@H](C(=O)N2CCCCC2)CC(=O)N(C)[C@@H](C)C(=O)N[C@@H](CC(C)C)C(=O)N(C)[C@@H](CC(C)C)C(=O)N1C [pd401] ([NMeA]L[NMeL][NMeS](Propyl)[3Pal(6-NMe2)][NMePhe(3-Cl)][NMeA]T[N(isopentyl)Gly][NMeV]D-Piperidide; lactam N-11) — within 1.5-fold, 2.9 ×10⁻⁶ cm/s
- CC[C@H]1NC(=O)C[C@@H](C(=O)N2CCCCC2)NC(=O)[C@H](CC(C)C)N(C)C(=O)[C@H](Cc2ccccc2)NC(=O)[C@@H]2C[C@@H](N3CCC(F)(F)CC3)CN2C(=O)[C@H]([C@@H](C)O)NC(=O)[C@H](CC(C)C)N(C)C(=O)[C@H](CC(C)C)NC(=O)[C@H](CC(C)C)N(C)C(=O)[C@H](COC(C)(C)C)NC(=O)[C@H](CC(C)C)N(C)C1=O [pd459] ([dAbu][NMeL]S(tBu)[NMeL]L[NMeL]T[X4]F[NMeL]D-Piperidide; lactam N-11) — 1.9-fold lower, 1.6 ×10⁻⁶ cm/s
- CC(C)C[C@@H]1NC(=O)[C@H](Cc2ccccc2)N(C)C(=O)[C@H](C)N(C)C(=O)C[C@@H](C(=O)N2CCCCC2)NC(=O)[C@H](CC(C)C)N(C)C(=O)[C@H](CC(C)C)N(C)C(=O)[C@H](COC(C)(C)C)NC(=O)[C@H](CC(C)C)N(C)C(=O)[C@H](C)N(C)C(=O)[C@H](CCC(=O)N(C)C)NC(=O)[C@H](CC(C)C)N(C)C1=O [pd440] ([NMeA][NMeF]L[NMeL]E(NMe2)[NMeA][NMeL]S(tBu)[NMeL][NMeL]D-Piperidide; lactam N-11) — within 1.5-fold, 4 ×10⁻⁶ cm/s
- CCCN1CC(=O)N(C)[C@@H](CC(C)C)C(=O)N[C@H](C(=O)N2CCCCC2)CC(=O)N(C)[C@@H](C)C(=O)N[C@@H](COCC(C)(C)O)C(=O)N(C)[C@@H](CC(C)C)C(=O)N(C)[C@@H](Cc2ccccc2)C(=O)N[C@@H](CC(C)C)C(=O)N(C)[C@@H](Cc2ccccc2)C(=O)N(C)[C@@H]([C@@H](C)CC)C(=O)N[C@@H]([C@@H](C)O)C1=O [pd428] ([NMeA]S(CH2CMe2OH)[NMeL][NMeF]L[NMeF][NMeI]T[NPrGly][NMeL]D-Piperidide; lactam N-11) — within 1.5-fold, 2.8 ×10⁻⁶ cm/s
- CCCOC[C@@H]1NC(=O)[C@H](CC(C)C)N(C)C(=O)[C@H](C(C)C)NC(=O)[C@H](Cc2ccccc2)N(C)C(=O)[C@@H](C(C)C)NC(=O)C[C@@H](C(=O)N2CCCCC2)NC(=O)[C@H](C)N(C)C(=O)[C@H](Cc2ccccc2)N(C)C(=O)[C@H](COC(C)(C)C)NC(=O)[C@H](CC(C)C)N(C)C(=O)CN(C)C1=O [pd326] ([dV][NMeF]V[NMeL]S(Propyl)[Sar][NMeL]S(tBu)[NMeF][NMeA]D-Piperidide; lactam N-11) — within 1.5-fold, 3.3 ×10⁻⁶ cm/s
- CC(C)CCOC[C@@H]1NC(=O)[C@H](C)N(C)C(=O)C[C@@H](C(=O)N2CCCCC2)NC(=O)[C@H](CC(C)C)N(C)C(=O)CN(C)C(=O)[C@H]([C@@H](C)O)NC(=O)[C@H](CC(C)C)N(C)C(=O)[C@H](Cc2ccccc2)N(C)C(=O)[C@H](C(C)C)NC(=O)[C@H](Cc2ccccc2)N(C)C(=O)[C@H](CC(C)C)N(C)C1=O [pd304] ([NMeA]S(Isopentyl)[NMeL][NMeF]V[NMeF][NMeL]T[Sar][NMeL]D-Piperidide; lactam N-11) — within 1.5-fold, 2.2 ×10⁻⁶ cm/s
- CCCCN1CC(=O)N(C)[C@@H](CC(C)C)C(=O)N[C@@H](CCC(=O)NS(C)(=O)=O)C(=O)N(C)[C@@H](Cc2cccc(Cl)c2)C(=O)N(C)[C@@H](C(C)C)C(=O)N[C@H](C(=O)N2CCCCC2)CC(=O)N[C@H](CC(C)C)C(=O)N(C)[C@@H](Cc2cccc(Cl)c2)C(=O)N[C@@H](CC(C)C)C(=O)N(C)[C@@H](CC(C)C)C(=O)N[C@@H]([C@@H](C)O)C1=O [pd60] ([dL][NMePhe(3-Cl)]L[NMeL]T[NBuGly][NMeL][Glu(NHSO2Me)][NMePhe(3-Cl)][NMeV]D-Piperidide; lactam N-11) — 310-fold lower, 0.01 ×10⁻⁶ cm/s

Same assay, conditions: human, Caco-2, Caco-2 (cm/sec)

Point of comparison: `CC(C)C[C@H]1C(=O)N[C@@H](COC(C)(C)C)C(=O)N(C)[C@@H](Cc2ccccc2)C(=O)N(C)[C@@H](CC(C)C)C(=O)N(C)[C@H](C(=O)N2CCCCC2)CC(=O)N2CCC[C@@H]2C(=O)N(C)[C@@H](Cc2cccc(Cl)c2)C(=O)N[C@@H](C(C)C)C(=O)N(C)[C@@H](C(C)C)C(=O)N[C@@H]([C@@H](C)O)C(=O)N(C)CC(=O)N1C` [pd165] ([dP][NMePhe(3-Cl)]V[NMeV]T[Sar][NMeL]S(tBu)[NMeF][NMeL][NMeD]-Piperidide; lactam N-11), Papp A→B at 180 min 2.8 ×10⁻⁶ cm/s. Against it:
- CC(C)C[C@H]1C(=O)NCC(=O)N[C@H](C(=O)N(C)[C@@H](Cc2ccccc2)C(=O)N(C)[C@@H](Cc2ccccc2)C(=O)N[C@@H](C)C(=O)N2CCCCC2)CC(=O)N[C@@H](C)C(=O)N[C@@H]([C@@H](C)O)C(=O)N(C)[C@@H](C)C(=O)N(C)[C@@H](Cc2ccccc2)C(=O)N[C@@H](C(C)C)C(=O)N(C)[C@@H](Cc2ccccc2)C(=O)N1C [pd247] (AT[NMeA][NMeF]V[NMeF][NMeL]GD[NMeF][NMeF]A-Piperidide; lactam N-9) — 32-fold lower, 0.087 ×10⁻⁶ cm/s
- CC(C)C[C@H]1C(=O)N(C)CC(=O)N[C@@H](Cc2ccccc2)C(=O)N[C@@H](Cc2ccc(C(F)(F)F)cc2)C(=O)N(C)[C@@H](CC(C)C)C(=O)N(C)[C@@H](CC(C)C)C(=O)N[C@@H]([C@@H](C)O)C(=O)N(C)[C@H](C(=O)N2CCCCC2)CC(=O)N1C [pd150] ([NMeL][Sar]F[Phe(4-CF3)][NMeL][NMeL]T[NMeD]-Piperidide; lactam N-8) — 1.6-fold lower, 1.7 ×10⁻⁶ cm/s
- CCCN1CC(=O)N(C)[C@@H](Cc2ccccc2)C(=O)N[C@@H]([C@@H](C)CC)C(=O)N(C)[C@@H](Cc2ccccc2)C(=O)N[C@@H]([C@@H](C)O)C(=O)N(C)CC(=O)N(C)[C@@H](Cc2ccccc2)C(=O)N(C)[C@@H](CC(C)C)C(=O)N[C@@H](COC(C)(C)C)C(=O)N(C)[C@@H](C(C)C)C(=O)N[C@H](C(=O)N2CCCCC2)CC1=O [pd195] ([NPrGly][NMeF]I[NMeF]T[Sar][NMeF][NMeL]S(tBu)[NMeV]D-Piperidide; lactam N-11) — 1.8-fold higher, 5 ×10⁻⁶ cm/s
- CC(C)C[C@@H]1NC(=O)[C@H](Cc2ccccc2)N(C)C(=O)[C@H](C)NC(=O)C[C@@H](C(=O)N2CCCCC2)N(C)C(=O)[C@H](Cc2ccccc2)N(C)C(=O)[C@H](Cc2ccccc2)N(C)C(=O)[C@H](COC(C)(C)C)NC(=O)[C@H](CC(C)C)N(C)C(=O)CN(C)C(=O)[C@H]([C@@H](C)O)NC(=O)[C@H](CC(C)C)N(C)C1=O [pd209] (A[NMeF]L[NMeL]T[Sar][NMeL]S(tBu)[NMeF][NMeF][NMeD]-Piperidide; lactam N-11) — 1.6-fold lower, 1.7 ×10⁻⁶ cm/s
- CC[C@H](C)[C@H]1C(=O)N[C@@H]([C@@H](C)O)C(=O)N(C)CC(=O)N(C)[C@@H](CC(C)C)C(=O)N[C@H](C(=O)N2CCCCC2)CC(=O)N(C)[C@@H](C)C(=O)N[C@@H](CC(C)C)C(=O)N(C)[C@@H](CC(C)C)C(=O)N(C)[C@@H](CC(C)C)C(=O)N[C@@H](Cc2ccc(C(F)(F)F)cc2)C(=O)N(C)[C@@H](C)C(=O)N1C [pd142] ([NMeA]L[NMeL][NMeL][Phe(4-CF3)][NMeA][NMeI]T[Sar][NMeL]D-Piperidide; lactam N-11) — within 1.5-fold, 2.9 ×10⁻⁶ cm/s
- CC(C)C[C@H]1C(=O)N[C@@H](COC(C)(C)C)C(=O)N[C@@H]([C@@H](C)O)C(=O)N(C)[C@@H](Cc2ccccc2)C(=O)N[C@H](C(=O)N2CCCCC2)CC(=O)N[C@@H](C)C(=O)N(C)[C@@H](Cc2ccccc2)C(=O)N(C)[C@@H](C)C(=O)N(C)[C@@H](Cc2ccccc2)C(=O)N(C)[C@@H](CC(C)C)C(=O)N[C@@H](Cc2ccccc2)C(=O)N1C [pd237] (A[NMeF][NMeA][NMeF][NMeL]F[NMeL]S(tBu)T[NMeF]D-Piperidide; lactam N-11) — 31-fold lower, 0.089 ×10⁻⁶ cm/s
